Reference: patent US9572882B2, “Compositions and methods for improving cardiovascular function” (RiboCor, INC., priority 2000, dated 2017)
“Also recorded” adds a separate entry of the source. Like-named read-outs stand apart in the source and are kept apart here.

How the values were obtained:
plasma homocysteine = settings: cited from earlier work
[1] = test system: patients with chronic coronary artery disease with stable angina pectoris and chronic heart failure, class II and III; test: Transthoracic echocardiography in double-blinded, randomized, crossover clinical study of ribose vs placebo; type: in vivo, human; settings: oral
Description: (§1) A double-blinded, randomized, crossover clinical study was initiated to determine whether patients with cardiovascular disease could find a ribose benefit at lower, safer doses. Patients with known chronic coronary artery disease with stable angina pectoris and chronic heart failure, class II and III (New York Classification, NYHA) were selected for the study. […] All patients were being treated with nitrates, molsidim and beta blockers. Three patients were also on diltiazem and an additional three on trapidil. Medications were not altered during the study. Exclusion criteria included patients <18 years of age, those with severe concurrent disease (renal failure, diabetes mellitus, neoplasia), evidence of hyperthyroidism and inability to follow the protocol.
The study consisted of two treatment periods, three weeks in duration. Initially, either ribose or placebo (dextrose) was administered three times a day with meals. Five grams of either ribose of or placebo was dissolved in approximately eight ounces of fluid shortly before administration. Following the initial treatment period, the patients were given no ribose or placebo treatment for one week as a washout period. The patients were then given the alternate treatment for three weeks for the crossover phase of the study.
Measured objectives parameters of systolic and diastolic function were assessed with transthoracic echocardiography. Subjectively, quality of life using the SF36 form, and physical function (exercise tolerance) were assessed. All of the above parameters were assessed at pre- and post-treatment in both arms of the study.
Each echocardiographic assessment was performed by the same clinical individual and accumulated data were analyzed by two cardiologists in a blinded manner, with a consensus establishing a final result. All studies were conducted with commercially available equipment (System V, GE, Norway). To allow off-line quantitative analysis of the echocardiographic data, studies were recorded on videotape with selected cine-loops and velocity spectra digitally transferred to a Macintosh G4 computer (Apple Computers, CA) for subsequent analysis. Software provided by the manufacturer (Echopac®, GE, Norway) was used for data evaluation.
Each echocardiographic assessment was performed transthoracically and a 1.7/3.4 MHZ harmonic transducer was used with the patient examined in the left lateral decubitus position. A one-lead electrocardiogram was recorded continuously during echocardiographic assessment. The M-Mode left atrial dimension was measured at end-systole in the parasternal long-axis view and left ventricular ejection fraction was determined according to the recommendations of the North American Society of Echocardiography. In addition, left atrial volume was determined using the Simpson's rule in the 4 chamber view. Transmitral Doppler inflow velocities were recorded from the apical four-chamber view with the sample volume positioned between the tips of the mitral leaflets during quiet respiration.
The parameters derived from the transmitral velocity spectra were: peak velocity of the early (E) and atrial filling (A) waves, the corresponding velocity time integrals (VTIE and VTIA and the percentage of atrial contribution to total left ventricular filling. The deceleration slope of the E wave was also measured. The percentage of atrial contribution to total left ventricular filling was determined by dividing the VTIA by the total diastolic velocity time integral. The results of five consecutive heart cycles were averaged in each patient to obtain a justified value.
Analysis of variance for repeated measures (ANOVA) was used for the analysis of serial changes of continuous parameters within and between the randomized, assigned treatment arms, i.e. ribose vs placebo. Further comparison were subject to Bonferroni correction. In all cases, a p value s 0.05 was considered statistically significant.

[2] = test system: subject with borderline blood pressure; test: Blood pressure in one subject with borderline hypertension given ribose; type: in vivo, human
Description: As shown in Example 1, treatment with ribose improves diastolic cardiac function. Since hypertension is accompanied by left ventricular dysfunction, it is expected that the administration of ribose to patients experiencing hypertension with result in a benefit. One subject has been tested. Their blood pressure has been tested at borderline values of 130/90. Following daily administration of ribose at 5-10 grams per day, their blood pressure was lowered to as low as 108/78.

[3] = test system: patients with chronic coronary artery disease and chronic heart failure; test: Quality of life (SF 36 form) and physical function in the crossover study; type: in vivo, human; settings: oral, 5 g three times a day for three weeks
Description: as §1, with “protocol. The study consisted of two treatment periods, three weeks in duration. Initially, either ribose or placebo (dextrose) was administered three times a day with meals. […] Measured objectives parameters of systolic and diastolic function were assessed with transthoracic echocardiography. Subjectively, quality of life using the SF36 form, and physical function (exercise tolerance) were assessed. All of the above parameters were assessed at pre- and post-treatment in both arms of the study. Quality of life was assessed in each patient using the SF 36 form. […]” for “protocol.”

[4] = test system: patients with chronic coronary artery disease and chronic heart failure; test: Semi-upright bicycle exercise test in the crossover study; type: in vivo, human; settings: beginning vs end of the treatment period
Description: as §1, with “protocol. The study consisted of two treatment periods, three weeks in duration. Initially, either ribose or placebo (dextrose) was administered three times a day with meals. Five grams of either ribose of or placebo was dissolved in approximately eight ounces of fluid shortly before administration. Following the initial treatment period, the patients were given no ribose or placebo treatment for one week as a washout period. […] Rate pressure product (RPP) was calculated using systolic blood pressure times heart rate and expressed in RPP units.” for “protocol.”

[5] = test system: patients with cardiovascular disease; athletes; settings: cited from earlier work
[6] = test system: patients with heart failure; patients with angina; settings: cited from earlier work
congestive heart failure = settings: 4 weeks of supplementation (Azuma et al 1983); cited from earlier work
[7] = 5 g three times a day for three weeks
[8] = 5 g three times a day for three weeks, p ≦ .005 vs dextrose placebo

Structure (SMILES): Nc1nc2ncc(CNc3ccc(C(=O)N[C@@H](CCC(=O)O)C(=O)O)cc3)nc2c(=O)[nH]1 [Folic acid]
- reduction of plasma homocysteine levels (plasma homocysteine; 250 pg/d dose (Brouwer et al. 1999)): 11%
- reduction of plasma homocysteine levels (plasma homocysteine; 300 pg/d in healthy individuals over 5 weeks (Mansoor)): 20%
- reduction of plasma homocysteine (plasma homocysteine; 300 pg/day plus 120 mg/day of vitamin B6 (Mansoor)): 32%
- reduction of plasma homocysteine levels (plasma homocysteine; 500 pg/d dose (Brouwer et al. 1999)): 22%

Structure (SMILES): O=C[C@H](O)[C@H](O)[C@H](O)CO [Ribose, D-Ribose]
- atrial contribution to left ventricular filling as compared to placebo [1, 7]: higher
- deceleration time of the E wave as compared to placebo [1, 7]: significant shorter
- ejection fraction (EF) [1, 7]: 51.0 ± 7.3%
- left atria volume as compared to placebo [1, 7]: significantly smaller
- atrial contribution (Ac) ([1]; 5 g three times a day for three weeks, p < .01 vs dextrose placebo): 45.3 ± 9.2 &
- deceleration time of the E wave (Edc) [1, 8]: 193.5 ± 45.9 ms
- left ventricular systolic volume (LVVs) [1, 8]: 64.4 ± 24.8 mL
- stroke volume index (SVI) [1, 8]: 2.63 ± .57 ml/body mass index
- diastolic cardiac function ([1]; relatively short term, severe coronary artery disease and congestive heart failure): significantly improved
- pressure-lowering effects in further studies ([2]; further studies, expected): expected to confirm the pressure-lowering effects
- blood pressure after ribose ([2]; one subject, borderline values of 130/90 before, 5-10 grams per day daily): 108/78
- overall score of the quality of life index ([3]; SF 36 form): significant improvement; also recorded: enhanced
- physical function [3]: significant improvement
- mean maximal attained exercise level [4]: not changed
- benefit to patients with cardiovascular disease ([5]; 60 grams daily in four 15 gram doses for three days (Pliml 1992)): benefited
- side effects ([5]; 60 grams daily in four 15 gram doses): hypoglycemia with concomitant dizziness, nausea and sweating; also recorded: abdominal distress and diarrhea
- treadmill performance of angina patients ([5]; orally administered high doses (Pliml et al 1992)): increased
- power output of athletes on exercise bikes ([5]; supplemental ribose (U.S. Pat. No. 6,159,942)): greater

Structure (SMILES): N=C(N)NCCC[C@H](N)C(=O)O [arginine, L-arginine]
- benefits for patients with heart failure ([6]; 5.6 to 12.6 g/day supplemental (Rector et al 1996)): increased blood flow, increased distances in a 6-minute walk test, and improved arterial compliance
- exercise capacity in patients with angina ([6]; oral, 6 g/day for 3 days (Ceremuzynski et al 1997)): improved

Structure (SMILES): NCCS(=O)(=O)O [taurine]
- dyspnea, palpitation, crackles, edema, and New York Heart Association functional class (congestive heart failure): highly significant improvement
